From patent US5474988A, “5-phenylpyrrolo-1,4-benzoxazine and 5-phenylpyrrolo-1,4-benzothiazine compounds, process and intermediates for their production and pharmaceutical compositions containing them” (Kali-Chemie Pharma GmbH, priority 1993, dated 1995)

What was measured:
5-lipoxygenase [1] = assay: inhibition of 5-lipoxygenase activity in polymorphonuclear rat leucocytes (LTB4 formation); assay type: cell-based; settings: 10^-5 mol/l; 22° C.
Excerpt: 4. In vitro determination of 5-lipoxygenase inhibition. 4a. In vitro determination of inhibition of 5-lipoxygenase activity in polymorphonuclear rat leucocytes. Arachidonic acid contained in cell membranes is released after activiation of the polymorphonuclear leucocytes (=PMN). During the course of this, under the action of the enzyme 5-lipoxygenase (=5-LO) arachidonic acid metabolites are synthesized which can be converted to leucotriene B4 (=LTB4) by LTA4 hydrolase. LTB4 is a principal metabolite of the arachidonic acid metabolism taking place on activation of the enzyme 5-LO by the inflammatory stimulus in the cell membrane. In in vitro systems, this metabolite is secreted from PMNs. […] To accomplish this, the content of LTB4 in a culture medium of rat peritoneal PMNs was determined after stimulation by calcimycin (=calcium-ionophore A23187) such as described by […] et al., Can. J. Physiol. Pharmacol. 67 (1989), 17. A cell suspension containing peritoneal PMNs of male Sprague-Dawley rats (body weight 200 to 250 g) was obtained in a known manner as follows: 6 ml of a solution containing 27.9 g/l of sodium thioglycolate were injected i.p. into the animals in order to induce the PMN invasion due to this inflammatory stimulus. After 22 hours, the animals were sacrificed by means of lethal ether anaesthesia. 20 ml of a Hank's salt solution (=Hank's Balanced Salt Solution=HBSS), but without Ca^++ and Mg^++ ions and with 0.2% by weight of sodium citrate, were then injected into the abdominal cavity. The suspension of accumulated cells was removed from the abdominal cavity and the cells were separated by centrifugation (10 minutes at 400×g). The cells were purified by repeated centrifugation in the presence of Ficoll-Paque®, (=metrizoic acid preparation, […], manufacturer Pharmacia), then washed twice with HBSS containing Ca^++ and Mg^++ ions and resuspended in HBSS containing Ca^ ++ and Mg^++ ions and buffered with 10 mM HEPES (=hydroxyethylpiperazinoethanesulfonic acid). In order to carry out the tests, samples of 0.7 ml of the PMN suspension (=0.5×10^6 cells) in each case were incubated for 15 minutes at 22° C. in plastic tubes containing 10 μM of the test substance in dimethylformamide or, as a control experiment, only containing dimethylformamide. The LTB4 synthesis was initiated in the samples by addition of calcimycin (final concentration 5 μm), and the samples were incubated for 10 minutes at 22° C. Only solvent was added to blank control samples. After 10 minutes, the reaction was terminated by addition of 0.3 ml of cold methanol. The samples were kept for 1 hour at 4° C. and then centrifuged (5 minutes at 10,000×g). The supernatant liquid was investigated to determine its LTB4 content by means of reverse phase high-pressure liquid chromatography (=reverse phase HPLC). […] The LTB4 was identified by comparison with authentic standard solutions eluting at the same time and determined at a wavelength of 270 nm. The LTB4 contents are determined from comparison with calibrated standard solutions, and from this the inhibitory activity of the test substances was calculated in % inhibition of the LTB4 synthesis in comparison with the control samples containing no test substance.

5-lipoxygenase [2] = target: T1, 5-lipoxygenase (Cavia porcellus, UniProt A0A286X958); assay: inhibitory activity on free 5-lipoxygenase concentrated from peritoneal PMNs of the guinea-pig (5-HETE formation); assay type: biochemical; settings: 10^-5 mole/liter; guinea-pig 5-LO, 37° C.; read-out: In vitro % inhibitory activity on 5-HETE formation caused by free 5-LO
T1 construct: The 5-LO was concentrated in a known manner from PMNs of male Dunkin-Hartley guinea-pigs; endogenous in cells; host or cells: peritoneal PMNs of male Dunkin-Hartley guinea-pigs, homogenized; 10,000 x g supernatant used as enzyme solution
T1 sequence (A0A286X958 1-674): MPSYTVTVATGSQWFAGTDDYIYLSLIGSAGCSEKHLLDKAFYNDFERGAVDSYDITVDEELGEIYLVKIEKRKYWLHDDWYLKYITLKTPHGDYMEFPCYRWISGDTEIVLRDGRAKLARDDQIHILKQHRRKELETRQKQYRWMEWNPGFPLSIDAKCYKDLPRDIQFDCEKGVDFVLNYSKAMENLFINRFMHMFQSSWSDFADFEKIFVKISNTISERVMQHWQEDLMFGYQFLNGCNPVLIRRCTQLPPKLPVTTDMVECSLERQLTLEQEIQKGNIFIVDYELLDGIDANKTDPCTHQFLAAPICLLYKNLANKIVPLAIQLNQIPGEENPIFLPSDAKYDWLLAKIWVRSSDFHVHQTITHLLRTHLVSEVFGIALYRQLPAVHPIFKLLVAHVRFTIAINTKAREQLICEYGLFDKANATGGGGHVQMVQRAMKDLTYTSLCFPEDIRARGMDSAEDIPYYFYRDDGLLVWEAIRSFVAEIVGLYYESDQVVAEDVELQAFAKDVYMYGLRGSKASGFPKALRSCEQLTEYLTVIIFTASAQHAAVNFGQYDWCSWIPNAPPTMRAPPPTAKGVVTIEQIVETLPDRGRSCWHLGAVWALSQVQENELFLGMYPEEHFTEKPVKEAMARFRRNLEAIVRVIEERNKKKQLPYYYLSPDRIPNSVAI
Excerpt: 4b. In vitro determination of inhibitory activity on 5-lipoxygenase concentrated from peritoneal PMNs of the guinea-pig.
An inhibition of 5-lipoxygenase can be caused by direct inhibitory action of the substances on the enzyme and/or by interference with the activation of the enzyme. While in test 4a the 5-lipoxygenase inhibition of the substances was investigated in rat PMN cells, in test 4b the inhibitory activity of the substances was investigated on free 5-LO concentrated from guinea-pig PMN cells according to the method of D. Aharony et al., J. Biol. Chem. 261 (1986), 11512-11519 (1986).
The 5-LO was concentrated in a known manner from PMNs of male Dunkin-Hartley guinea-pigs (body weight 400 to 500 g) as follows. 10 ml of a solution containing 27.9 g/l of sodium thioglycolate were injected i.p. into the animals in order to induce the PMN invasion as a result of this inflammatory stimulus. After 22 hours, the animals were sacrificed by lethal ether anaesthesia. 70 ml of HBSS without Ca^++ and Mg^++ ions and containing 0.2% by weight of sodium citrate were then injected into the abdominal cavity. The cell suspension (>80% of the cells are PMNs) was withdrawn from the abdominal cavity, filtered through a cheese-making filter cloth, and washed twice with a 50 mM potassium phosphate buffer solution of pH 7.4, which contained 0.5 mM ethylenediaminetetraacetic acid, 1% by weight of gelatine and 20 μM indomethacin. The cells were resuspended, and the PMN suspension containing 10^8 cells/ml was homogenized three times for 15 seconds each in an ice-bath in a homogenizer of the Labsonic™ type set at high speed. The resulting suspension was centrifuged at 4° C. (15 minutes at 10,000×g). The supernatant liquid was used for the investigation as a solution of the free 5-LO enzyme.
The experiments were carried out at 37° C. for 7 minutes using 0.625 ml samples of this enzyme solution. For the experiments, the enzyme solution (=equivalent of 2.5×10^7 cells), 0.5 mM glutathione, 1 mM ATP and 0.3 mM calcium chloride were added to test tubes. […] of the test substance were added to the samples dissolved in sufficient dimethylformamide such that the dimethylformamide concentration in each test tube is 0.5%. Only dimethylformamide was added to the control samples. After 2 minutes, the formation of 5-(S)-hydroxy-6,8,11,14-eicosatetraenoic acid (=[…]) was initiated by addition 10 μM arachidonic acid. After 5 minutes, the reaction was terminated by addition of 0.625 ml of a mixture of methyl acetate/methanol/0.2 m citric acid 15:2:0.5 v/v/v. 5-HETE was extracted twice using this solvent mixture. The 5-HETE-containing phases were combined and evaporated to dryness under a nitrogen atmosphere. The residue was taken up in a mixture of methanol/water/acetic acid 75:21:0.02 v/v/v having a pH of 5.7, and the solution was investigated for its content of 5-HETE by means of reverse phase HPLC. To accomplish this, a […] silanized silica gel column (Hichrom® ODS2, 250×4.6 mm) was employed as the adsorbent and a mixture of methanol/water/acetic acid 75:21:0.02 adjusted to pH 5.7 with ammonia and having a flow rate of 1 ml/min was used as the eluent. 5-HETE, which was eluted as a single peak after 20 minutes, was identified by comparison with standard solutions eluted at the same time and determined using a UV light detector at a wavelength of 235 nm. Quantitative determination was carried out by comparison of the peak area obtained with peak areas occurring in the calibrated standard solutions. From the 5-HETE contents of the samples determined, the inhibitory activity of the test substances was calculated in % inhibition of 5-HETE synthesis in comparison to the control samples containing no test substance.

SMILES | inhibition at 10 µM (5-lipoxygenase [2]) | In vitro inhibitory activity on LTB4 formation in rat PMNs stimulated by calcium ionophore A23187 (5-lipoxygenase [1])
COc1cc(-c2c(C)c3cccc4c3n2CC(CCC(=O)N2CCN(c3cc(C)ccn3)CC2)O4)ccc1O (stereo not shown) [Example 38] | 100% | 97%
Cc1ccnc(N2CCN(CCCC3Cn4c(-c5ccc(O)cc5)c(C)c5cccc(c54)O3)CC2)c1 (stereo not shown) [Example 16] | 57% | 60%
Cc1ccc(N2CCN(CCC3Cn4c(-c5cc(C)c(O)c(C)c5)c(C)c5cccc(c54)O3)CC2)nc1 (stereo not shown) [Example 62] | 77% | 56%
COc1cc(-c2c(C)c3cccc4c3n2CC(CCN2CCN(c3ncccc3C)CC2)O4)ccc1O (stereo not shown) [Example 35] | 55% | 79%
Cc1ccnc(N2CCN(CCC3Cn4c(-c5ccc(O)cc5)c(C)c5cccc(c54)S3)CC2)c1 (stereo not shown) [Example 21] | 30% | 42%
Cc1cc(-c2c(C)c3cccc4c3n2CC(CCN2CCC(N(C)c3nccc(=O)[nH]3)CC2)O4)cc(C)c1O (stereo not shown) [Example 40] | 56% | 82%
COc1cc(-c2c(C)c3cccc4c3n2CC(CCCCN2CCN(c3cc(C)ccn3)CC2)S4)cc(C)c1O (stereo not shown) [Example 64] | 74% | 

Now from value to molecule, other results behind:

inhibition at 10 µM (5-lipoxygenase [2]) | SMILES | In vitro inhibitory activity on LTB4 formation in rat PMNs stimulated by calcium ionophore A23187 (5-lipoxygenase [1])
65% | Cc1c(-c2ccc(O)cc2)n2c3c(cccc13)OC(CCC(=O)N1CCN(c3ccccn3)CC1)C2 (stereo not shown) [Example 36] | 89%
99% | Cc1ccnc(N2CCN(C(=O)CCC3Cn4c(-c5ccc(O)c(O)c5)c(C)c5cccc(c54)O3)CC2)c1 (stereo not shown) [Example 49] | 88%
70% | Cc1cc(-c2c(C)c3cccc4c3n2CC(CCN2CCN(c3ccccn3)CC2)O4)cc(C)c1O (stereo not shown) [Example 59] | 
95% | Cc1ccnc(N2CCN(CCCC3Cn4c(-c5cc(C)c(O)c(C)c5)c(C)c5cccc(c54)O3)CC2)c1 (stereo not shown) [Example 11] | 
